Experimental data published in patent publication US20240270762A1, “PENICILLIN-BINDING PROTEIN INHIBITORS” (priority 2021, published 2024).
pEC50, pIC50: −log10 of the molar value. Converted amounts (≈) assume the structure as drawn.

Assays:
[1] = target: T1, PBP1a from Acinetobacter baumannii (ATCC 19606) (Acinetobacter baumannii, UniProt A0ABX6CK30); assay: Bocillin-FL fluorescence polarization competition binding, A. baumannii PBP1a; conditions: fluorescence polarization competition binding assay using Bocillin-FL; read-out: A. baumannii PBP1a Potency
T1 sequence (A0ABX6CK30 1-851): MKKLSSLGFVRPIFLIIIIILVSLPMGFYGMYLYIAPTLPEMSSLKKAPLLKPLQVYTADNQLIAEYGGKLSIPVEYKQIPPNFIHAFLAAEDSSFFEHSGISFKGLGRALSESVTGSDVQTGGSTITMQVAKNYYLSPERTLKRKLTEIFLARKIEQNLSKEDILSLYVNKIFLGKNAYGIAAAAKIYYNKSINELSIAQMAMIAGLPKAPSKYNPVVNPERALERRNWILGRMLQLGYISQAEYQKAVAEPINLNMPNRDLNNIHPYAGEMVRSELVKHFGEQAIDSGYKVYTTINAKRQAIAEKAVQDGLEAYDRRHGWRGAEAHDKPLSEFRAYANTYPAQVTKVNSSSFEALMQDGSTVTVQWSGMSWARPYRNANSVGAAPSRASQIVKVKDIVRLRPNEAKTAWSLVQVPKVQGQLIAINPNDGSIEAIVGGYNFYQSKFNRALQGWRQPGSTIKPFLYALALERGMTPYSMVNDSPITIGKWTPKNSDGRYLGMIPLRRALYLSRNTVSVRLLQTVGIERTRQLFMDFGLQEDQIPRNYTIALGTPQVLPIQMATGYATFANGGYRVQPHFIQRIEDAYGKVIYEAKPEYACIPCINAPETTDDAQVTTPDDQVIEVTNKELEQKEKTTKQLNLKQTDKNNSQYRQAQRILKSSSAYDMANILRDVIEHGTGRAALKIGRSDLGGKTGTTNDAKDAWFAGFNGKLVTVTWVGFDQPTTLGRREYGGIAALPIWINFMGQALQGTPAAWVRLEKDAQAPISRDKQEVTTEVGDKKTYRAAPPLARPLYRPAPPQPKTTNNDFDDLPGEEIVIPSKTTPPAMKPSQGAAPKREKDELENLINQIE
Source text: To determine the ability of boronic acid-based test PBP inhibitors to bind Penicillin Binding Proteins (PBPs), Bocillin-FL (fluorescently-labeled penicillin V; ThermoFisher Scientific) was used in a fluorescence polarization (FP) competition binding assay to assess inhibitor binding to PBP3 from Escherichia coli (K-12), PBP3 from Pseudomonas aeruginosa (PAO1), PBP1a and PBP3 from Acinetobacter baumannii (ATCC 19606), and PBP2 from Neisseria gonorrhoeae (FA19). PBPs were cloned and purified as described previously (E. coli PBP3, King, D. T, et al., ACS Infectious Diseases 2015, 1, 175-184; P. aeruginosa PBP3, Han et. al., PNAS 2010, 107 (51), 22002-22007; A. baumannii PBPs, Penwell et. al., Antimicrob. Agents Chemother. 2015, 59 (3), 1680-1689; N. gonorrhoeae PBP2, Singh et. al., J. Biol. Chem. 2019, 294 (38), 14020-14032). To establish assay conditions for competition binding, enzyme titration/saturation binding experiments were initially performed. Bocillin-FL was prepared at 0.2 μM in a buffer comprised of 50 mM Hepes (pH 8.0), 300 mM NaCl and 10% (v/v) glycerol for reactions with E. coli, P. aeruginosa and N. gonorrhoeae PBPs, and 25 mM Tris (pH 8.0), 200 mM NaCl, 10% (v/v) glycerol and 0.005% (v/v) Tween 20 for reactions with A. baumannii PBPs. Saturation binding was performed by mixing 40 μl of PBP solutions ranging in concentrations from 0-24 μM with 40 μl of the 0.2 μM Bocillin-FL solution, in individual wells of a black 384-well microplate. FP was measured immediately upon mixing (Excitation, 490 nm; Emission, 520 nm; g-factor, 0.96), using a Cytation3 (BioTek) microplate reader and measured continuously for up to 120 minutes. The FP response stabilized after 15 minutes for P. aeruginosa and A. baumannii PBP3, 30 minutes for E. coli PBP3 and A. baumannii PBP1a, and less than 1 minute for N. gonorrhoeae PBP2. […] The competition binding assay (80 μl final volume) was validated using beta-lactams and PBPs at final concentrations of: 1.5 μM for E. coli PBP3; 0.75 μM for P. aeruginosa PBP3; 1 μM for A. baumannii PBP1a; 0.2 μM for A. baumannii PBP3; and 0.25 μM for N. gonorrhoeae PBP2. Bocillin-FL was at 0.1 μM (0.05 μM with A. baumannii PBP1a) and beta-lactam concentrations ranged from 0-1,000 μM. E. coli PBP3 was incubated with increasing concentrations of ampicillin in a black 384-well microplate (Corning) for 30 minutes. P. aeruginosa PBP3 was incubated for 15 minutes with aztreonam, whereas A. baumannii PBP1a and PBP3 were incubated for 15 minutes with meropenem, and then Bocillin-FL was added followed immediately by the FP measurement for up to 60 minutes. […] The beta-lactam potency was reported as the concentration of beta-lactam required to reduce the amount of PBP bound-Bocillin-FL by 50% (EC50). […] The EC50 of aztreonam was determined to be <0.5 μM for P. aeruginosa PBP3. […] Binding assays for boronic acid PBP inhibitors were performed in an identical fashion for the respective PBPs.

[2] = target: T2, A. baumannii PBP1a (Acinetobacter baumannii, UniProt A0ABX6CK30); assay: Bocillin-FL competition binding via gel filtration, A. baumannii PBP1a; conditions: competition binding assay using Bocillin-FL via gel filtration; read-out: A. baumannii PBP1a Potency
T2 sequence (A0ABX6CK30 1-851): T1 sequence (A0ABX6CK30 1-851)
How it was run: (§1)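 Competitive equilibrium binding; reporter Bocillin-FL. PBP + inhibitor (titration) pre-incubated → Bocillin-FL, 15 min → gel filtration → fluorescence. EC50 from Hill fit of fraction bound vs [inhibitor].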

[3] = target: A. baumannii PBP2 (Acinetobacter baumannii, UniProt D0C8Z9); assay: Bocillin-FL competition binding via gel filtration, A. baumannii PBP2
How it was run: as §1

[4] = tested on: B. humptydooensis ATCC BAA-2767; assay: microbe, parasite or virus in culture; type: cell-based; conditions: Burkholderia humptydooensis, ATCCBAA2767, read-out: Minimum inhibitory concentration (MIC), B. humptydooensis ATCC BAA-2767
[5] = tested on: P. aeruginosa CDC-0054; assay: microbe, parasite or virus in culture; type: cell-based; conditions: Pseudomonas aeruginosa, CDC0054, read-out: Minimum inhibitory concentration, P. aeruginosa CDC-0054

A. baumannii PBP2, sequence (D0C8Z9 whole entry): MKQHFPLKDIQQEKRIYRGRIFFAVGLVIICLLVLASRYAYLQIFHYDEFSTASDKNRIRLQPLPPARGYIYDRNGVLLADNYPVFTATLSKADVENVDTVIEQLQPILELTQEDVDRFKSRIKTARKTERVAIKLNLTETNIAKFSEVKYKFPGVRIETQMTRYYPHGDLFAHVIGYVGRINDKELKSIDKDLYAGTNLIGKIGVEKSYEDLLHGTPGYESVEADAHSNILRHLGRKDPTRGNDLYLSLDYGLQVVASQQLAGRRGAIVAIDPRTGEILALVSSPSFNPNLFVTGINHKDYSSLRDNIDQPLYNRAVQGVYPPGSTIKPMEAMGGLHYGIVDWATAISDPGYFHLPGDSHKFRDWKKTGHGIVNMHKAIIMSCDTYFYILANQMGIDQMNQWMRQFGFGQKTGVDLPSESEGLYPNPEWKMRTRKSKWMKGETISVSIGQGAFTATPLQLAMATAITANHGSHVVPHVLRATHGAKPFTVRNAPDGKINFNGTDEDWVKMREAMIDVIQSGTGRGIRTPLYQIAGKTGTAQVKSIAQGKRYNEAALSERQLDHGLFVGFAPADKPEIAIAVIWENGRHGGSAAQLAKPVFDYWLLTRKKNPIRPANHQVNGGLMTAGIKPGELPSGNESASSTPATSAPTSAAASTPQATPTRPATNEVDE

SMILES | pIC50 [1] | pEC50 [2] | pEC50 [3] | MIC [4] [µg/mL] | MIC [5] [µg/mL]
O=C(O)c1c(F)ccc2c1OB(O)[C@@H](NC(=O)C(NC(=O)N1CCN(Cc3cc(F)c(O)c(O)c3Cl)C(=O)C1=O)c1ccc(P(=O)(O)O)cc1)C2 (stereo partly drawn) [Example 45, (3R)-3-(2-(4-(2-chloro-5-fluoro-3,4-dihydroxybenzyl)-2,3-dioxopiperazine-1-carboxamido)-2-(4-phosphonophenyl)acetamido)-7-fluoro-2-hydroxy-3,4-dihydro-2H-benzo[e][1,2]oxaborinine-8-carboxylic acid] | < 3.60 | 4.30 to 5.00 | > 5.00 | < 1 | < 1
O=C(O)c1c(F)ccc2c1OB(O)[C@@H](NC(=O)C(NC(=O)N1CCN(Cc3ccc(O)c(O)c3Cl)C1=O)c1ccc(P(=O)(O)O)cc1)C2 (stereo partly drawn) [Example 46, (3R)-3-(2-(3-(2-chloro-3,4-dihydroxybenzyl)-2-oxoimidazolidine-1-carboxamido)-2-(4-phosphonophenyl)acetamido)-7-fluoro-2-hydroxy-3,4-dihydro-2H-benzo[e][1,2]oxaborinine-8-carboxylic acid] | < 3.60 | > 5.00 | 4.30 to 5.00 | < 1 | 2 to 4 (≈ 2.83 to 5.66 µM)
